The results in this text go back to patent US20230339886A1 (University of Florida Research Foundation, Incorporated, priority 2020, published 2023).

Some results are limits rather than exact numbers.

T1 sequence (P20393 with tags, fused parts or gaps DEL324-422): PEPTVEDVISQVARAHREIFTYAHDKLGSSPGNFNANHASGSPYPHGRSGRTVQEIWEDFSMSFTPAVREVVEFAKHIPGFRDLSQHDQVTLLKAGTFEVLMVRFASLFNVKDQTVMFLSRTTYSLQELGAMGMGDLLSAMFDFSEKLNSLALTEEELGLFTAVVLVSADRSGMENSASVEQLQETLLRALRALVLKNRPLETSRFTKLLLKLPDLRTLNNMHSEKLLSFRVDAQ
T1 sequence (Q9Y618 2335-2356 partner limits assumed): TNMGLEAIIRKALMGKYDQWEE

The first assay addresses T1, REV-ERBα LBD (human; residues 281-614 Δ324-422) (Homo sapiens, UniProt P20393, DEL324-422).
T1 construct: 6×Histag-REV-ERBα LBD (human; residues 281-614 Δ324-422); made in house; host or cells: Escherichia coli
The experiment in a line: TR-FRET corepressor interaction assay (REV-ERBα LBD, FITC-SMRT peptide). In kind it is biochemical. The following applies: FITC-SMRT peptide, read-out: REVERBα agonism (EC50 class, FRET assay). In outline:
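Compound serial dilutions (in DMSO, triplicate) incubated 2 h at 4 °C; Tb donor excited at 340 nm, emission read at 495 nm and FITC acceptor at 520 nm. TR-FRET ratio (520/495 nm) plotted against ligand concentration and fitted to a sigmoidal dose-response curve.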
One may read the EC50 as the concentration that produces a half-maximal response. On to `CC(C)(C)Cn1cc([C@H](NS(=O)(=O)C2CC2)C(F)(F)F)c2ccc(-c3c(Cl)cncc3Cl)cc21` [Example 470, (S)—N-(1-(6-(3,5-dichloropyridin-4-yl)-1-neopentyl-1H-indol-3-yl)-2,2,2-trifluoroethyl)cyclopropanesulfonamide], for which the half-maximal effective concentration (EC50) was less than 500 nM.
The same measure, in the same setting: the result for `CC(C)(C)Cn1cc([C@H](NS(=O)(=O)C2CCC2)C(F)(F)F)c2ccc(C3CCCC3)cc21` [Example 506, (S)—N-(1-(6-cyclopentyl-1-neopentyl-1H-indol-3-yl)-2,2,2-trifluoroethyl)cyclobutanesulfonamide] reads less than 500 nM; that for `CC(C)(C)Cn1cc([C@H](NS(=O)(=O)C2CCC2)C(F)(F)F)c2cc(F)c(-c3cnccc3C(F)(F)F)cc21` [Example 530, (S)—N-(2,2,2-trifluoro-1-(5-fluoro-1-neopentyl-6-(4-(trifluoromethyl)pyridin-3-yl)-1H-indol-3-yl)ethyl)cyclobutanesulfonamide], less than 500 nM; that for `O=S(=O)(N[C@@H](c1cn(CC2(C(F)(F)F)CC2)c2cc(-c3ccccc3C(F)(F)F)ccc12)C(F)(F)F)C1CCC1` [Example 523, (S)—N-(2,2,2-trifluoro-1-(1-((1-(trifluoromethyl)cyclopropyl)methyl)-6-(2-(trifluoromethyl)phenyl)-1H-indol-3-yl)ethyl)cyclobutanesulfonamide], less than 500 nM.
On the same count and under the same terms, the result for `CC(C)(C)Cn1cc([C@@H](CO)NS(=O)(=O)C2CC2)c2ccc(-c3ccccc3C(F)(F)F)cc21` [Example 432, (S)—N-(2-hydroxy-1-(1-neopentyl-6-(2-(trifluoromethyl)phenyl)-1H-indol-3-yl)ethyl)cyclopropanesulfonamide] reads less than 500 nM; that for `CC(C)(C)Cn1cc([C@H](NS(=O)(=O)C2CCC2)C(F)(F)F)c2ccc(C3=CCCC3)cc21` [Example 521, (S)—N-(1-(6-cyclopentenyl-1-neopentyl-1H-indol-3-yl)-2,2,2-trifluoroethyl)cyclobutanesulfonamide], less than 500 nM; that for `[2H][C@](NS(=O)(=O)C1CCC1)(c1cn(CC(C)(C)C)c2cc(-c3ccccc3C(F)(F)F)ccc12)C(F)F` [Example 563, (S)—N-(2,2-difluoro-1-(1-neopentyl-6-(2-(trifluoromethyl)phenyl)-1H-indol-3-yl)ethyl-1-d)cyclobutanesulfonamide], less than 500 nM.
Take `CC(C)(C)Cn1cc([C@H](NS(=O)(=O)C2CCC2)C(F)(F)F)c2cc(F)c(-c3cccnc3C#N)cc21` (racemic) [Example 529, (S)—N-(1-(6-(2-cyanopyridin-3-yl)-5-fluoro-1-neopentyl-1H-indol-3-yl)-2,2,2-trifluoroethyl)cyclobutanesulfonamide]: the EC50 was less than 500 nM.

The same assay, now with this note: Table 2, read-out: REVERBα agonism (EC50 class, FRET assay).
For `CC(C)Cn1cc(CCNS(=O)(=O)N(C)C)c2ccc(-c3ccc(F)cc3)cc21` [Example 45, N-{2-[6-(4-fluorophenyl)-1-(2-methylpropyl)-1H-indol-3-yl]ethyl}-N,N-dimethylsulfuric diamide], the EC50 was 500 to 3000 nM.
On the same count and under the same terms, then `COC(=O)Cn1cc(CCNS(=O)(=O)N(C)C)c2ccc(Br)cc21` [Example 164, methyl 2-(6-bromo-3-(2-((N,N-dimethylsulfamoyl)amino)ethyl)-1H-indol-1-yl)acetate], with greater than 3000 nM; and `COc1cc(-c2ccc3c(CCNS(=O)(=O)N(C)C)cn(CC(C)C)c3c2)ccn1` [Compound 19], with 500 to 3000 nM.
With `CC(C)Cn1cc(CCNS(=O)(=O)N(C)C)c2cc(-c3ccncc3)ccc21` [Compound 232], the concentration for a half-maximal effect (EC50) is greater than 3000 nM.
In the case of `CC(C)Cn1cc(CCNS(C)(=O)=O)c2ccc(-c3ccncc3)cc21` [Compound 3], the EC50 is 500 to 3000 nM.
As to `CC(C)Cc1cn(CCN(C)S(=O)(=O)N(C)C)c2ncc(-c3ccncc3)cc12` [Example 125, dimethyl[methyl({2-[3-(2-methylpropyl)-5-(pyridin-4-yl)-1H-pyrrolo[2,3-b]pyridin-1-yl]ethyl})sulfamoyl]amine], the EC50 was less than 500 nM.
On the same count and under the same terms, then `CC(C)Cn1cc([C@H](NS(=O)(=O)N(C)C)C(F)(F)F)c2ccc(C(C)C)cc21` [Example 339, dimethyl({[(1S)-2,2,2-trifluoro-1-[1-(2-methylpropyl)-6-(propan-2-yl)-1H-indol-3-yl]ethyl]sulfamoyl})amine], with less than 500 nM; and `CC(C)c1ccc2c([C@H](NS(=O)(=O)C3CC3)C(F)(F)F)cn(CC(C)(C)C)c2c1` [Example 335, (S)—N-(2,2,2-trifluoro-1-(6-isopropyl-1-neopentyl-1H-indol-3-yl)ethyl)cyclopropanesulfonamide], with less than 500 nM.
Still for that read-out and setting: then `CC(C)Cn1cc(-c2ccc(CNS(=O)(=O)C(C)C)cc2)c2ccc(-c3ccccc3)cc21` [Example 87, N-(4-(1-isobutyl-6-phenyl-1H-indol-3-yl)benzyl)propane-2-sulfonamide], with 500 to 3000 nM.
As to `CC(C)Cn1cc([C@H](NS(=O)(=O)C2CC2)C(F)(F)F)c2ccc(-c3ccncc3)cc21` [Example 307, (S)—N-(2,2,2-trifluoro-1-(1-isobutyl-6-(pyridin-4-yl)-1H-indol-3-yl)ethyl)cyclopropanesulfonamide], the EC50 is less than 500 nM.
The same measure, in the same setting: the result for `CC(C)S(=O)(=O)NCCc1cn(CC(C)(C)C)c2cc(-c3ccccc3C(F)(F)F)c(F)cc12` [Compound 289] reads less than 500 nM; that for `CN(C)S(=O)(=O)N[C@@H](c1cn(CC(C)(C)C)c2cc(-c3ccccc3Cl)c(F)cc12)C(F)(F)F` [Example 330, {[(1S)-1-[6-(2-chlorophenyl)-1-(2,2-dimethylpropyl)-5-fluoro-1H-indol-3-yl]-2,2,2-trifluoroethyl]sulfamoyl}dimethylamine], less than 500 nM.
Regarding `CC(C)Cn1cc(CCNS(=O)(=O)N(C)C)c2ccc(C3CCNCC3)cc21` [Compound 102, dimethyl({2-[1-(2-methylpropyl)-6-(piperidin-4-yl)-1H-indol-3-yl]ethyl}sulfamoyl)amine], the EC50 is greater than 3000 nM.
With `COc1cccc(Cn2cc(CCNS(=O)(=O)N(C)C)c3ccc(-c4ccncc4)cc32)c1` [Example 147, N-{2-[6-(pyridin-4-yl)-1-(3-methoxybenzyl)-1H-indol-3-yl]ethyl}-N,N-dimethylsulfuric diamide], the 50% effective concentration (EC50) fell in the range of 500 to 3000 nM.
The same measure, in the same setting: then `CC(C)Cn1cc(C(C)CNS(=O)(=O)C(C)C)c2ccc(-c3ccccc3)cc21` (stereo not drawn) [Compound 254], with greater than 3000 nM; and `CNC(=O)Cn1cc(CCNS(=O)(=O)N(C)C)c2ccc(Br)cc21` [Example 166, 2-(6-bromo-3-(2-((N,N-dimethylsulfamoyl)amino)ethyl)-1H-indol-1-yl)-N-methylacetamide], with 500 to 3000 nM.
On the same count and under the same terms, the result for `CC(C)Cn1cc([C@H]2C[C@H]2NS(=O)(=O)C(C)C)c2ccc(-c3ccncc3)cc21` [Compound 258] reads less than 500 nM; that for `CC(C)Cn1cc([C@@H](NS(=O)(=O)C2CC2)C(F)(F)F)c2ccc(-c3ccccc3C(F)(F)F)cc21` [Example 222, (R)—N-(2,2,2-trifluoro-1-(1-isobutyl-6-(2-(trifluoromethyl)phenyl)-1H-indol-3-yl)ethyl)cyclopropanesulfonamide], 500 to 3000 nM.
On to `CC(C)Cn1cc(CCN(C)S(=O)(=O)N(C)C)c2ccc(Br)cc21` [Compound 123, ({2-[6-bromo-1-(2-methylpropyl)-1H-indol-3-yl]ethyl}(methyl)sulfamoyl)dimethylamine], for which the EC50 fell in the range of 500 to 3000 nM.
On to `CC(C)Cn1cc(CCNS(=O)(=O)N(C)C)c2ccc(-c3ccccc3OCc3ccccc3)cc21` [Example 77, N-{2-[6-(2-benzyloxylphenyl)-1-(2-methylpropyl)-1H-indol-3-yl]ethyl}-N,N-dimethyl-sulfuric diamide], for which the EC50 was 500 to 3000 nM.
Regarding `CN(C)S(=O)(=O)NCCc1cn(Cc2cccc(I)c2)c2cc(-c3ccncc3)ccc12` [Example 145, N-{2-[6-(pyridin-4-yl)-1-(3-iodobenzyl)-1H-indol-3-yl]ethyl}-N,N-dimethylsulfuric diamide], the concentration giving a half-maximal response (EC50) is greater than 3000 nM.
As to `CC(C)Cn1cc(CCNS(=O)(=O)N(C)C)c2cc(Br)ccc21` [Example 135, ({2-[5-bromo-1-(2-methylpropyl)-1H-indol-3-yl]ethyl}sulfamoyl)dimethylamine], the EC50 is less than 500 nM.
Take `O=S(=O)(N[C@@H](c1cn(CC2CCCC2)c2cc(-c3ccccc3C(F)(F)F)c(F)cc12)C(F)(F)F)C1CCC1` [Example 421, (S)—N-(1-(1-(cyclopentylmethyl)-5-fluoro-6-(2-(trifluoromethyl)phenyl)-1H-indol-3-yl)-2,2,2-trifluoroethyl)cyclobutanesulfonamide]: the half-maximal effective concentration (EC50) was less than 500 nM.
The same measure, in the same setting: then `CC(C)(C)Cc1cn(CCNS(=O)(=O)C2CC2)c2cc(F)c(Br)cc12` [Example 293, N-(2-(5-bromo-6-fluoro-3-neopentyl-1H-indol-1-yl)ethyl)cyclopropanesulfonamide], with greater than 3000 nM; and `Cc1c(Br)ccc2c([C@H](NS(=O)(=O)C3CC3)C(F)(F)F)cn(CC(C)(C)C)c12` [Example 368, (S)—N-(1-(6-bromo-7-methyl-1-neopentyl-1H-indol-3-yl)-2,2,2-trifluoroethyl)cyclopropanesulfonamide], with 500 to 3000 nM; and `CC(C)Cc1cn(CCS(=O)(=O)C(C)C)c2ccc(Br)cc12` [Example 173, 5-bromo-3-isobutyl-1-(2-(isopropylsulfonyl)ethyl)-1H-indole], with 500 to 3000 nM.
On the same count and under the same terms, the result for `CN(C)S(=O)(=O)NCCc1cn(Cc2cccc(Br)c2)c2cc(-c3ccncc3)ccc12` [Example 143, N-{2-[6-(pyridin-4-yl)-1-(3-bromobenzyl)-1H-indol-3-yl]ethyl}-N,N-dimethylsulfuric diamide] reads less than 500 nM.
On the same count and under the same terms, then `Cc1cccc2c(CCNS(=O)(=O)N(C)C)cn(CC(C)C)c12` [Example 169, dimethyl({2-[7-methyl-1-(2-methylpropyl)-1H-indol-3-yl]ethyl}sulfamoyl)amine], with 500 to 3000 nM.
